Laboratory results: ChEMBL document CHEMBL2046362, “Synthesis and evaluation of novel potent HCV NS5A inhibitors” (Bioorg Med Chem Lett, 2012)

Assays:
[1] = Cytotoxicity against human HuH7 cells; assay type: cell-based, Huh-7
[2] = (§1) Cytotoxicity against human PBMC cells; assay type: cell-based; conditions: PBMC cells
[3] = molecular target: T1, Nonstructural protein 5A (Hepatitis C virus) (UniProt Q5L478); assay: Inhibition of HCV NS5A assessed as antiviral activity against HCV by viral replicon assay; conditions: Hepacivirus hominis
T1 sequence (whole entry): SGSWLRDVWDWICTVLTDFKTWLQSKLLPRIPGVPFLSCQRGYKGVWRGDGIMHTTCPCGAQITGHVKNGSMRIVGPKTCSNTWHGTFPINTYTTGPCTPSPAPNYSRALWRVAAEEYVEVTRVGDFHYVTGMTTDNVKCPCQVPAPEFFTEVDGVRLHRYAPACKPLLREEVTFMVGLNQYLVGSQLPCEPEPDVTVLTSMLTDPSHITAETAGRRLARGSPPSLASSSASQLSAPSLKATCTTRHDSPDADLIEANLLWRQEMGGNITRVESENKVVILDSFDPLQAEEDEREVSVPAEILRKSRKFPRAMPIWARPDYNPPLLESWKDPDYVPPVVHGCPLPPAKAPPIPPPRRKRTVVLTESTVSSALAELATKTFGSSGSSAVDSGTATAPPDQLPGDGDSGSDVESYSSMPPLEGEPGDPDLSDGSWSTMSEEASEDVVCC

[4] = Chemical stability in phosphate buffer assessed as compound degradation at pH 3 at 20 degC measured between 1 to 48 hrs during 48 hrs incubation period; conditions: pH 3, 48 h
CYP2C9 = CYP2C9 (Homo sapiens, UniProt P11712); assay: (§2) Inhibition of CYP2C9; assay type: ADME
CYP2C9, sequence (P11712 whole entry): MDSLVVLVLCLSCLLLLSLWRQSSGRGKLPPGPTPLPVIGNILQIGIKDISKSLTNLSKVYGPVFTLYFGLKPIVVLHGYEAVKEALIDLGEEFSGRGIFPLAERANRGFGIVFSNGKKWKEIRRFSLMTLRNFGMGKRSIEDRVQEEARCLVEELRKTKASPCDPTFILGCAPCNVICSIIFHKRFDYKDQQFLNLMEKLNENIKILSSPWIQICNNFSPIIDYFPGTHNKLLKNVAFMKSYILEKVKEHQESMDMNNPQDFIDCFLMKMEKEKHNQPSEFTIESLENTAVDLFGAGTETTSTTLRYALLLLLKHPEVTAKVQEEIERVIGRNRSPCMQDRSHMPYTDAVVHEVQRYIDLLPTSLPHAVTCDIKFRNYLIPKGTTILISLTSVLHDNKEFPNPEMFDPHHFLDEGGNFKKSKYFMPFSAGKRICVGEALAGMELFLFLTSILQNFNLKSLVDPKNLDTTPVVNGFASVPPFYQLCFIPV

Cytochrome P450 2C9 = Cytochrome P450 2C9 (Homo sapiens, UniProt P11712); assay: as §2; assay type: ADME
Cytochrome P450 2C9, sequence (P11712 whole entry): as above

PBMC = assay: as §1; assay type: cell-based; conditions: pbmc
Liver microsomes [5] = assay: Intrinsic clearance in human liver microsomes assessed per mg protein at 1 uM measured 5 to 60 mins post dose by LC-MS/MS nethod; assay type: ADME, Microsome
Cytochrome P450 3A4 = Cytochrome P450 3A4 (Homo sapiens, UniProt P08684); assay: (§3) Inhibition of CYP3A4; assay type: ADME
Cytochrome P450 3A4, sequence (P08684 whole entry): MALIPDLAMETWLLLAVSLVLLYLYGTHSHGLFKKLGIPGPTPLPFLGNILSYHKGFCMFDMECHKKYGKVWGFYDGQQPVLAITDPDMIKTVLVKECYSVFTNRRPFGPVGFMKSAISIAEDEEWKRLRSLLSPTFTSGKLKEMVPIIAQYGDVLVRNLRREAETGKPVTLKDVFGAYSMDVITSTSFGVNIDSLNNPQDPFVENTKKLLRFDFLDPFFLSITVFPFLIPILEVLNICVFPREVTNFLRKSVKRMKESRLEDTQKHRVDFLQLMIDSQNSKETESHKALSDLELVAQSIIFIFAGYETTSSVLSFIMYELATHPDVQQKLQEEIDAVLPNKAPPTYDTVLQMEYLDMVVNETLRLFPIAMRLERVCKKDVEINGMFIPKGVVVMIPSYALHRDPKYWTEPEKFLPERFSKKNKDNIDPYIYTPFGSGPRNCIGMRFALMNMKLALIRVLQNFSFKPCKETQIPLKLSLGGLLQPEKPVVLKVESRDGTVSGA

CYP3A4 = CYP3A4 (Homo sapiens, UniProt P08684); assay: as §3; assay type: ADME
CYP3A4, sequence (P08684 whole entry): as above

CCRF-CEM = assay: Cytotoxicity against human CEM cells; assay type: cell-based
Liver microsomes [6] = assay: Half life in human liver microsomes at 1 uM measured 5 to 60 mins post dose by LC-MS/MS nethod; assay type: ADME, Microsome
Cytochrome P450 1A2 = molecular target: T2, Cytochrome P450 1A2 (Homo sapiens, UniProt P05177); assay: (§4) Inhibition of CYP1A2; assay type: ADME
T2 sequence (P05177 whole entry): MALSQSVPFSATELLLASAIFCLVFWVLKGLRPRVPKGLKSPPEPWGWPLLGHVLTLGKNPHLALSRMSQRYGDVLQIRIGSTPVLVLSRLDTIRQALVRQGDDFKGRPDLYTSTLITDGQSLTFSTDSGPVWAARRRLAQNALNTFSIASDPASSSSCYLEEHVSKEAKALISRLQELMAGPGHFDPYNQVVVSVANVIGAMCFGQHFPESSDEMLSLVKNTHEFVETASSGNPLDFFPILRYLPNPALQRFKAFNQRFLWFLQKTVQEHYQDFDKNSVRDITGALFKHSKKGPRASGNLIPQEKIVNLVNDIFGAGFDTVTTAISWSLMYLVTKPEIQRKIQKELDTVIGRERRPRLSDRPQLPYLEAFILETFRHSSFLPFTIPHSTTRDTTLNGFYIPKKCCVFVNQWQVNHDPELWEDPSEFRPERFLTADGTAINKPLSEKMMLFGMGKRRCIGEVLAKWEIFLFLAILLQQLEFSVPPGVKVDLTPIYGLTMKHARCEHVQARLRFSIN

CYP1A2 = molecular target: T3, CYP1A2 (Homo sapiens, UniProt P05177); assay: as §4; assay type: ADME
T3 sequence (P05177 whole entry): T2 sequence (P05177 whole entry)

Vero = assay: Cytotoxicity against african green monkey Vero cells; assay type: cell-based; conditions: chlorocebus sabaeus
Cytochrome P450 2D6 = Cytochrome P450 2D6 (Homo sapiens, UniProt P10635); assay: (§5) Inhibition of CYP2D6; assay type: ADME
Cytochrome P450 2D6, sequence (P10635 whole entry): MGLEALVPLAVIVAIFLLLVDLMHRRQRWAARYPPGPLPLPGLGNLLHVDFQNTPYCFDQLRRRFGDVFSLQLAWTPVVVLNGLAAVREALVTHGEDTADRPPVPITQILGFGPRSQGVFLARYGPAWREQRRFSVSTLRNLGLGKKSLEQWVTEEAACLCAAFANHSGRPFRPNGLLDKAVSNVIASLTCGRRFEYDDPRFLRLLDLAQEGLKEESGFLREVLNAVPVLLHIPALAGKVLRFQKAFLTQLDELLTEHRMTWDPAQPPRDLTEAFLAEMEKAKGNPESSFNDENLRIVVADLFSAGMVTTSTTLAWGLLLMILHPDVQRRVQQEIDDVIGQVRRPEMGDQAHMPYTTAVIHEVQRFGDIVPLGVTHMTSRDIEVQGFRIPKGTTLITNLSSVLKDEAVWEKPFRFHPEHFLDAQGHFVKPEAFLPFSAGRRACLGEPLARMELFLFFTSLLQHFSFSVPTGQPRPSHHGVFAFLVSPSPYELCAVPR

CYP2D6 = CYP2D6 (Homo sapiens, UniProt P10635); assay: as §5; assay type: ADME
CYP2D6, sequence (P10635 whole entry): as above

[7] = Chemical stability in phosphate buffer assessed as compound degradation at pH 7 at 20 degC measured between 2 to 48 hrs during 48 hrs incubation period; assay type: physicochemical; conditions: pH 7, 48 h
[8] = Cytotoxicity against human primary lymphocytes; assay type: cell-based; conditions: lymphocyte

Row | Compound | CC50 [1] [nM] | CC50 [2] [µM] | EC90 [3] [pM] | Stability [4] | IC90 (CYP2C9) [µM] | IC50 (Cytochrome P450 2C9) [µM] | CC50 (PBMC) [µM] | CLint (Liver microsomes [5]) [µL/min/mg] | IC50 (Cytochrome P450 3A4) [µM] | IC90 (CYP3A4) [µM] | CC50 (CCRF-CEM) [µM] | t1/2 (Liver microsomes [6]) [min] | IC50 (Cytochrome P450 1A2) [µM] | IC90 (CYP1A2) [µM] | CC50 (Vero) [µM] | IC50 (Cytochrome P450 2D6) [µM] | IC90 (CYP2D6) [µM] | Stability [7] | Activity [8]
1 | COC(=O)N[C@H](C(=O)N1C[C@H](N=[N+]=[N-])C[C@H]1c1ncc(-c2ccc(-c3ccc(-c4cnc([C@@H]5C[C@@H](N=[N+]=[N-])CN5C(=O)[C@@H](NC(=O)OC)C(C)C)[nH]4)cc3)cc2)[nH]1)C(C)C | > 1000 | > 100 | 54.2 |  |  |  |  |  |  |  |  |  |  |  |  |  |  |  | 
2 | COC(=O)N[C@H](C(=O)N1CCC[C@H]1c1nc(Cl)c(-c2ccc(-c3ccc(-c4[nH]c([C@@H]5CCCN5C(=O)[C@@H](NC(=O)OC)C(C)C)nc4Cl)cc3)cc2)[nH]1)C(C)C | > 1000 |  | 11.4 | Stable | > 100 | 81.6 | 2.8 | 5.8 | 13.8 | > 100 | 12 | 119.5 | > 100 | > 100 | 100 | > 100 | > 100 | Stable | 
3 | COC(=O)N[C@H](C(=O)N1CCC[C@H]1c1nc(F)c(-c2ccc(-c3ccc(-c4[nH]c([C@@H]5CCCN5C(=O)[C@@H](NC(=O)OC)C(C)C)nc4F)cc3)cc2)[nH]1)C(C)C | > 1000 |  | 21.2 | Stable | > 100 | > 100 | 19 | 5.6 | 3.1 | > 100 | 3 | 123.8 | > 100 | > 100 | > 100 | > 100 | > 100 | Stable | Toxic
